What is called Km is the substrate concentration at which the rate is half of its maximum. In general, Vmax refers to the rate approached at saturating substrate.

Ki, Km and Vmax data for 1 compound are collected here from ChEMBL document CHEMBL3525955, “Glucuronidation of the red clover isoflavone irilone by liver microsomes from different species and human UDP-glucuronosyltransferases” (Drug Metab Dispos, 2011).

Data set [1] addresses Liver microsome. Description: Drug metabolism in Sprague-Dawley rat liver microsomes assessed as substrate inhibition of IRI-O-4'-monoglucuronide formation incubated for 5 mins prior to UDPGA addition measured after 90 mins by Eadie-Hoftsee plot analysis. It is filed as ADME.
Data set [2] in a line: Drug metabolism in pig liver microsomes assessed as IRI-O-4'-monoglucuronide formation incubated for 5 mins prior to UDPGA addition measured after 90 mins by Eadie-Hoftsee plot analysis. To be noted: 1.5 h. It is filed as ADME, Sus scrofa. For orientation: Liver microsomes are a subcellular fraction often used to study metabolism.
Data set [3] has as its system Liver microsome. Description: Drug metabolism in human liver microsomes assessed as IRI-O-4'-monoglucuronide formation incubated for 5 mins prior to UDPGA addition measured after 90 mins by Eadie-Hoftsee plot analysis. In kind it is ADME. To be noted: 1.5 h.

`O=c1c(-c2ccc(O)cc2)coc2cc3c(c(O)c12)OCO3`: on Liver microsome [1], the Ki was found to be 44.7 µM. Besides, in data set [2], the Michaelis constant (Km) is 88.6 µM and the Vmax worked out at 4.87 nmol/mg/min. For the same compound, in the data set with Liver microsome [3], the Km came out at 64.7 µM and the Vmax was 0.34 nmol/mg/min.
